Laboratory results from patent US20070197599A1, “HYDROXYLAMINES AND DERIVATIVES AS ANTI-ANGIOGENIC AGENTS” (priority 2006, published 2007).

Legend:
[1] = system: H2O2-induced angiogenesis in the CAM model; experiment: H2O2-induced angiogenesis in the chick chorioallantoic membrane (CAM) model; format: in vivo
Method: (§1) Neovascularization was examined by previously described methods (see references at the end of Example 5). Ten-day-old fertilized chicken eggs were incubated at 37° C. with 55% relative humidity. In the dark with the help of candling lamp and using a hypodermic needle a small hole was punctured in the shell covering the air sac. A second hole was punctured on the wider side of the egg above an avascular area of the embryonic membrane. An artificial air sac was created below the second hole by applying gentle vacuum to the first hole using a small rubber squeeze bulb. The vacuum caused the separation of chorioallantoic membrane (CAM) from the shell. An approximately 1.0 cm^2 widow was cut in the shell over the dropped CAM with the use of a mini drill. The underlying CAM was accessed through this small window.
(§2) Filter disks were punched using a small puncher from filter paper #1 (Whatman International, United Kingdom). Filter disks were soaked in 3 mg/ml cortisone acetate solution (95% ethanol and water) and air-dried under sterile condition. For inducing angiogenesis, sterile filter disks were saturated with bFGF (1 μg/ml) or other pro-angiogenesis factors and control disks were saturated with PBS without Calcium and Magnesium.
(§3) Using sterile forceps one filter/CAM was placed from the window. The window was sealed with Highland brand transparent tape. After 24 hr, 10-25 µl of test agent (inhibitor) was injected intravenously or added topically into the CAM membrane of bFGF or other pro-angiogenesis factors stimulated CAMs. • Control filter disks received PBS without Calcium and Magnesium. • After 48 hr, CAM tissue directly beneath filter disk was harvested and placed in a 35-mm Petri dish. Eight-Ten eggs/treatment group was used.
(§4) A pro-angiogenic agent (see Examples, below) was added to induce new blood vessel branches on the CAM of 10-day old embryos. Sterile disks of #1 filter paper (Whatman International, United Kingdom) were pre-treated with 3 mg/ml cortisone acetate, and air dried under sterile conditions. The disks were then suspended in PBS (Phosphate Buffered Saline) and placed on growing CAMs. Filters treated with TPH (TEMPOL-H) or TEMPOL and/or H2O2 or TPH and/or bFGF or VEGF were placed on the first day of the 3-day incubation.
(§5) Digital Images and Microscopic analysis of CAM sections: CAM sections from Petri dish were examined using SV6 stereomicroscope (Karl Zeiss) at 50× magnification. Digital images were captured using a 3-CCD color video camera system (Toshiba America, New York, N.Y.). These images were analyzed using Image-Pro Plus software (Media Cybernetics). The number of branch points in blood vessels within the circular region superimposed to the area of a filter disk was counted for each section. After incubation at 37° C. with 55% relative humidity for 3 days, the CAM tissue directly beneath each filter disk was resected from control and treated CAM samples. Tissues were washed three times with PBS. Sections were placed in a 35-mm Petri dish (Nalge Nunc; Rochester, N.Y.) and were examined under a SV6 stereomicroscope (Karl Zeiss; Thornwood, N.Y.) at 50× magnification. Digital images of CAM sections adjacent to filters were collected using a 3-CCD color video camera system (Toshiba America; New York, N.Y.) and analyzed with the Image-Pro Plus software (Media Cybernetics; Silver Spring, Md.). The number of vessel branch points contained in a circular region equal to the area of a filter disk was counted for each section. Percent inhibition data are expressed as the quotient of the experimental value minus the negative control value divided by the difference between the positive control value and the negative control value. One image was counted in each CAM preparation, and findings from eight CAM preparations were analyzed for each treatment condition. In addition, each experiment was performed three times. […]

[2] = system: bFGF-induced angiogenesis in the CAM model; experiment: bFGF-induced angiogenesis in the CAM model (TPH); format: in vivo, chick
Method: as §1, §2, §3, §4, §5

[3] = In vitro stability of Compound 1 in rabbit plasma; format: in vitro ADME; settings: formed from OT-551 (Compound 1, 1000 ng/mL)
Method: (§6) The active metabolite of Compound 1 (Cyclopropanecarboxylic acid 1-hydroxy-2,2,6,6-tetramethyl-piperidin-4-yl ester) is TPH. The objective of this analysis was to determine the in vitro half-life of Compound 1 in rat, rabbit, dog, and human plasma under standardized incubation conditions.
(§7) Compound 1 was incubated with pooled rat, rabbit, dog, and human plasma for various times under standardized incubation conditions. Pre-labeled tubes containing pooled plasma from rats, rabbits, dogs, and humans were pre-incubated in a shaking 37° C. water bath. A Compound 1 solution was added to the tubes at a final concentration of 1000 ng/mL. Time zero samples (n=5) were immediately removed and transferred into tubes containing a stabilizer solution (DTPA, acetylcysteine and ascorbic acid), the LC/MS/MS assay internal standard and methanol. […] The tubes were vortexed, placed on ice, followed by centrifugation. One hundred-μL aliquots of the supernatant were transferred into HPLC sample vials. Additional tubes (n=5 at each time point) were incubated for 5, 10, 20, 30, 60, 120, and 240 minutes at 37° C. and thereafter processed. The amount of Compound 1 and TPH in each incubated sample was quantified using validated LC/MS/MS assays.

[4] = In vitro stability of Compound 1 in human plasma; format: in vitro ADME; settings: formed from OT-551 (Compound 1, 1000 ng/mL)
Method: as §6, §7

[5] = In vitro stability of Compound 1 in dog plasma; format: in vitro ADME; settings: formed from OT-551 (Compound 1, 1000 ng/mL)
Method: as §6, §7

[6] = H2O2 (88 μM, 30 ng) + 100 μg test agent
[7] = H2O2 (88 μM, 30 ng) + 200 μg test agent
[8] = H2O2 (88 μM, 30 ng) + 400 μg test agent
[9] = H2O2 (88 μM, 30 ng) + 800 μg test agent

Question: For `CC1(C)CC(O)CC(C)(C)N1O` [TPH], which “inhibition of angiogenesis induced by super-maximal concentrations of H2O2” value ([1]; CAM model, Tables 1A and 1B) is on record?
Answer: effectively inhibited

Question: What about the “% Inhibition ± SD” value [1, 6] of the same molecule?
Answer: 28.0 ± 13.6 %

Question: And the “Branch pts ± SEM” value [1, 6]?
Answer: 155 ± 14.4

Question: What about the “% Inhibition ± SD” value [1, 7] of the same molecule?
Answer: 32.9 ± 8.4 %

Question: And the “Branch pts ± SEM” value [1, 7]?
Answer: 151.3 ± 15.3

Question: And the “% Inhibition ± SD” value [1, 8]?
Answer: 44.7 ± 6.6 %

Question: What about the “Branch pts ± SEM” value [1, 8] of the same molecule?
Answer: 137.2 ± 6.9

Question: And the “% Inhibition ± SD” value [1, 9]?
Answer: 55.7 ± 7.2 %

Question: What about the “Branch pts ± SEM” value [1, 9] of the same molecule?
Answer: 127.3 ± 6.4

Question: And the “inhibition of bFGF-induced angiogenesis” value ([2]; 100-400 μg)?
Answer: dose-dependent inhibition

Question: And the “Mean % Inhibition ± SD” value ([2]; bFGF (1 μg/ml) + TPH 100 μg)?
Answer: 20 ± 12%

Question: And the “Mean Branch points ± SEM” value ([2]; bFGF (1 μg/ml) + TPH 100 μg)?
Answer: 172 ± 12.4

Question: And the “Mean % Inhibition ± SD” value ([2]; bFGF (1 μg/ml) + TPH 200 μg)?
Answer: 45.3 ± 7.5 %

Question: What about the “Mean Branch points ± SEM” value ([2]; bFGF (1 μg/ml) + TPH 200 μg) of the same molecule?
Answer: 147.2 ± 7.5

Question: And the “Mean % Inhibition ± SD” value ([2]; bFGF (1 μg/ml) + TPH 400 μg)?
Answer: 58.7 ± 10.9 %

Question: And the “Mean Branch points ± SEM” value ([2]; bFGF (1 μg/ml) + TPH 400 μg)?
Answer: 133.8 ± 10.8

Question: And the “Mean % Inhibition ± SD” value ([2]; bFGF (1 μg/ml) + TPH 800 μg)?
Answer: 28.1 ± 6.8 %

Question: What about the “Mean Branch points ± SEM” value ([2]; bFGF (1 μg/ml) + TPH 800 μg) of the same molecule?
Answer: 164.2 ± 6.7

Question: What about the “Concentration of TPH in plasma” value ([3]; incubation 0 min) of the same molecule?
Answer: 270.55 ± 35.45 ng/mL

Question: And the “Concentration of TPH in plasma” value ([3]; incubation 5 min)?
Answer: 587.17 ± 21.99 ng/mL

Question: What about the “Concentration of TPH in plasma” value ([3]; incubation 10 min) of the same molecule?
Answer: 604.21 ± 21.99 ng/mL

Question: What about the “Concentration of TPH in plasma” value ([3]; incubation 20 min) of the same molecule?
Answer: 590.06 ± 40.97 ng/mL

Question: And the “Concentration of TPH in plasma” value ([3]; incubation 30 min)?
Answer: 533.01 ± 117.40 ng/mL

Question: And the “Concentration of TPH in plasma” value ([3]; incubation 60 min)?
Answer: 569.19 ± 32.96 ng/mL

Question: What about the “Concentration of TPH in plasma” value ([3]; incubation 120 min) of the same molecule?
Answer: 525.63 ± 10.31 ng/mL

Question: What about the “Concentration of TPH in plasma” value ([3]; incubation 240 min) of the same molecule?
Answer: 477.54 ± 40.95 ng/mL

Question: And the “Concentration of TPH in plasma” value ([4]; incubation 0 min)?
Answer: 48.76 ± 2.84 ng/mL

Question: What about the “Concentration of TPH in plasma” value ([4]; incubation 5 min) of the same molecule?
Answer: 186.71 ± 4.58 ng/mL

Question: And the “Concentration of TPH in plasma” value ([4]; incubation 10 min)?
Answer: 241.99 ± 8.05 ng/mL

Question: What about the “Concentration of TPH in plasma” value ([4]; incubation 20 min) of the same molecule?
Answer: 310.10 ± 8.54 ng/mL

Question: And the “Concentration of TPH in plasma” value ([4]; incubation 30 min)?
Answer: 365.53 ± 14.44 ng/mL

Question: What about the “Concentration of TPH in plasma” value ([4]; incubation 60 min) of the same molecule?
Answer: 449.85 ± 9.73 ng/mL

Question: What about the “Concentration of TPH in plasma” value ([4]; incubation 120 min) of the same molecule?
Answer: 519.12 ± 19.52 ng/mL

Question: And the “Concentration of TPH in plasma” value ([4]; incubation 240 min)?
Answer: 501.39 ± 11.33 ng/mL

Question: And the “Concentration of TPH in plasma” value ([5]; incubation 0 min)?
Answer: 0.00 ± 0.00 ng/mL

Question: And the “Concentration of TPH in plasma” value ([5]; incubation 5 min)?
Answer: 5.85 ± 0.73 ng/mL

Question: What about the “Concentration of TPH in plasma” value ([5]; incubation 10 min) of the same molecule?
Answer: 8.77 ± 0.65 ng/mL

Question: What about the “Concentration of TPH in plasma” value ([5]; incubation 20 min) of the same molecule?
Answer: 12.79 ± 0.74 ng/mL

Question: And the “Concentration of TPH in plasma” value ([5]; incubation 30 min)?
Answer: 16.22 ± 0.67 ng/mL

Question: What about the “Concentration of TPH in plasma” value ([5]; incubation 60 min) of the same molecule?
Answer: 25.68 ± 1.04 ng/mL

Question: And the “Concentration of TPH in plasma” value ([5]; incubation 120 min)?
Answer: 39.31 ± 1.09 ng/mL

Question: What about the “Concentration of TPH in plasma” value ([5]; incubation 240 min) of the same molecule?
Answer: 53.92 ± 1.68 ng/mL
